Test results: publication PMC9516332 (Frontiers in Oncology, 2022)
Where two headings read alike, the source gives them in different places.

Legend:
134 cancer cell lines = test: Cell viability assay (ATPlite, 72 hours), IC50 on cancer cell line panel
AP-1060 (ETV6-NTRK3) = test: Cell viability assay

O=C(Nc1cnn2ccc(N3CCC[C@@H]3c3cc(F)ccc3F)nc12)N1CC[C@H](O)C1 [larotrectinib]
around four-fold more potent: potency in AP-1060 compared to entrectinib (AP-1060 (ETV6-NTRK3); cell viability)
> 31.6 µM: IC50 (134 cancer cell lines; Homo sapiens, MeWo, read-out: IC50 in cell proliferation assay, MeWo cell line) | IC50 (134 cancer cell lines; Homo sapiens, NCCIT, read-out: IC50 in cell proliferation assay, NCC-IT cell line) | IC50 (134 cancer cell lines; Homo sapiens, NCI-H82, read-out: IC50 in cell proliferation assay, cell line NCI-H82) | IC50 (134 cancer cell lines; Homo sapiens, NCI-H460, read-out: IC50 in cell proliferation assay, NCI-H460 cell line) | IC50 (134 cancer cell lines; Homo sapiens, NCI-H661, read-out: IC50 in cell proliferation assay, NCI-H661 cell line) | IC50 (134 cancer cell lines; Homo sapiens, NCI-H716, read-out: IC50 in cell proliferation assay, cell line NCI-H716 (FGFR2-COL14A1)) | IC50 (134 cancer cell lines; Homo sapiens, NCI-H1650, read-out: IC50 in cell proliferation assay, NCI-H1650 cell line (EGFR exon19del)) | IC50 (134 cancer cell lines; Homo sapiens, NCI-H1975, read-out: IC50 in cell proliferation assay, NCI-H1975 cell line (EGFR p.L858R + p.T790M)) | IC50 (134 cancer cell lines; Homo sapiens, NCI-H2228, read-out: IC50 in cell proliferation assay, NCI-H2228 cell line (EML4-ALK)) | IC50 (134 cancer cell lines; Homo sapiens, OVCAR-3, read-out: IC50 in cell proliferation assay, cell line OVCAR-3) | IC50 (134 cancer cell lines; Homo sapiens, PFSK-1, read-out: IC50 in cell proliferation assay, cell line PFSK-1) | IC50 (134 cancer cell lines; Homo sapiens, RL95-2, read-out: IC50 in cell proliferation assay, cell line RL95-2 (EGFR p.A289V)) | IC50 (134 cancer cell lines; Homo sapiens, RPMI-7951, read-out: IC50 in cell proliferation assay, cell line RPMI-7951 (BRAF p.V600E)) | IC50 (134 cancer cell lines; Homo sapiens, RS4-11, read-out: IC50 in cell proliferation assay, cell line RS4;11) | IC50 (134 cancer cell lines; Homo sapiens, Rec1, read-out: IC50 in cell proliferation assay, cell line REC-1) | IC50 (134 cancer cell lines; Homo sapiens, SHP77, read-out: IC50 in cell proliferation assay, cell line SHP-77) | IC50 (134 cancer cell lines; Homo sapiens, SK-BR-3, read-out: IC50 in cell proliferation assay, cell line SK-BR-3 (ERBB2 amplification)) | IC50 (134 cancer cell lines; Homo sapiens, SK-N-AS, read-out: IC50 in cell proliferation assay, cell line SK-N-AS) | IC50 (134 cancer cell lines; Homo sapiens, SK-N-FI, read-out: IC50 in cell proliferation assay, cell line SK-N-FI) | IC50 (134 cancer cell lines; Homo sapiens, SK-N-MC, read-out: IC50 in cell proliferation assay, cell line SK-N-MC) | IC50 (134 cancer cell lines; Homo sapiens, SK-N-SH, read-out: IC50 in cell proliferation assay, cell line SK-N-SH (ALK p.F1174L)) | IC50 (134 cancer cell lines; Homo sapiens, SNU-5, read-out: IC50 in cell proliferation assay, cell line SNU-5 (MET amplification)) | IC50 (134 cancer cell lines; Homo sapiens, SNU-16, read-out: IC50 in cell proliferation assay, cell line SNU-16 (FGFR2 amplification)) | IC50 (134 cancer cell lines; Homo sapiens, SNU-C2B, read-out: IC50 in cell proliferation assay, cell line SNU-C2B (EGFR p.R165Q)) | IC50 (134 cancer cell lines; Homo sapiens, SU-DHL-1, read-out: IC50 in cell proliferation assay, cell line SU-DHL-1 (NPM1-ALK)) | IC50 (134 cancer cell lines; Homo sapiens, SU-DHL-6, read-out: IC50 in cell proliferation assay, cell line SU-DHL-6) | IC50 (134 cancer cell lines; Homo sapiens, SUP-T1, read-out: IC50 in cell proliferation assay, cell line SUP-T1) | IC50 (134 cancer cell lines; Homo sapiens, SW48, read-out: IC50 in cell proliferation assay, cell line SW48 (EGFR p.G719S)) | IC50 (134 cancer cell lines; Homo sapiens, SW480, read-out: IC50 in cell proliferation assay, cell line SW480) | IC50 (134 cancer cell lines; Homo sapiens, SW626, read-out: IC50 in cell proliferation assay, cell line SW626) | IC50 (134 cancer cell lines; Homo sapiens, SW780, read-out: IC50 in cell proliferation assay, cell line SW780 (FGFR3-BAIAP2L1)) | IC50 (134 cancer cell lines; Homo sapiens, SW837, read-out: IC50 in cell proliferation assay, cell line SW837) | IC50 (134 cancer cell lines; Homo sapiens, SW872, read-out: IC50 in cell proliferation assay, cell line SW872 (BRAF p.V600E)) | IC50 (134 cancer cell lines; Homo sapiens, SW900, read-out: IC50 in cell proliferation assay, cell line SW900) | IC50 (134 cancer cell lines; Homo sapiens, SW948, read-out: IC50 in cell proliferation assay, cell line SW948) | IC50 (134 cancer cell lines; Homo sapiens, SW982, read-out: IC50 in cell proliferation assay, cell line SW982 (BRAF p.V600E)) | IC50 (134 cancer cell lines; Homo sapiens, SW-620, read-out: IC50 in cell proliferation assay, cell line SW620) | IC50 (134 cancer cell lines; Homo sapiens, T98G, read-out: IC50 in cell proliferation assay, cell line T98G) | IC50 (134 cancer cell lines; Homo sapiens, TCC-SUP, read-out: IC50 in cell proliferation assay, cell line TCCSUP) | IC50 (134 cancer cell lines; Homo sapiens, THP-1, read-out: IC50 in cell proliferation assay, cell line THP-1) | IC50 (134 cancer cell lines; Homo sapiens, U2OS, read-out: IC50 in cell proliferation assay, cell line U2OS) | IC50 (134 cancer cell lines; Homo sapiens, U-87 MG, read-out: IC50 in cell proliferation assay, cell line U-87MG ATCC) | IC50 (134 cancer cell lines; Homo sapiens, U-118-MG, read-out: IC50 in cell proliferation assay, cell line U-118MG) | IC50 (134 cancer cell lines; Homo sapiens, UMUC3, read-out: IC50 in cell proliferation assay, cell line UM-UC-3) | IC50 (134 cancer cell lines; Hs766T, read-out: IC50 in cell proliferation assay, Hs 766T cell line) | IC50 (134 cancer cell lines; L-82, read-out: IC50 in cell proliferation assay, L-82 cell line (NPM1-ALK)) | IC50 (134 cancer cell lines; Rh30, read-out: IC50 in cell proliferation assay, cell line Rh30) | IC50 (134 cancer cell lines; read-out: IC50 in cell proliferation assay, 11-18 cell line (EGFR p.L858R)) | IC50 (134 cancer cell lines; read-out: IC50 in cell proliferation assay, Hs 852.T cell line) | IC50 (134 cancer cell lines; read-out: IC50 in cell proliferation assay, JAR cell line) | IC50 (134 cancer cell lines; read-out: IC50 in cell proliferation assay, cell line 5637) | IC50 (134 cancer cell lines; read-out: IC50 in cell proliferation assay, cell line A-388) | IC50 (134 cancer cell lines; read-out: IC50 in cell proliferation assay, cell line DB) | IC50 (134 cancer cell lines; read-out: IC50 in cell proliferation assay, cell line DEL (NPM1-ALK)) | IC50 (134 cancer cell lines; read-out: IC50 in cell proliferation assay, cell line ES-2 (BRAF p.V600E)) | IC50 (134 cancer cell lines; read-out: IC50 in cell proliferation assay, cell line PA-1) | IC50 (134 cancer cell lines; read-out: IC50 in cell proliferation assay, cell line PC-3) | IC50 (134 cancer cell lines; read-out: IC50 in cell proliferation assay, cell line RD) | IC50 (134 cancer cell lines; read-out: IC50 in cell proliferation assay, cell line RKO (BRAF p.V600E)) | IC50 (134 cancer cell lines; read-out: IC50 in cell proliferation assay, cell line RL) | IC50 (134 cancer cell lines; read-out: IC50 in cell proliferation assay, cell line RT-4 (FGFR3-TACC3)) | IC50 (134 cancer cell lines; read-out: IC50 in cell proliferation assay, cell line SR (NPM1-ALK)) | IC50 (134 cancer cell lines; read-out: IC50 in cell proliferation assay, cell line T24) | IC50 (134 cancer cell lines; read-out: IC50 in cell proliferation assay, cell line TT (RET p.C634W)) | IC50 (134 cancer cell lines; read-out: IC50 in cell proliferation assay, cell line VA-ES-BJ)
26.5 µM: IC50 (134 cancer cell lines; Homo sapiens, MV4-11, read-out: IC50 in cell proliferation assay, MV4-11 cell line (FLT3 ITD))
0.009 µM: IC50 (AP-1060 (ETV6-NTRK3); read-out: IC50 in cell proliferation assay)
